From paper PMC3933301 (Journal of medicinal chemistry, 2013)
≈ marks a conversion by molar mass, not a printed value.

Experiments:
[1] = test system: Mtb clinical strain NHN382 (isoniazide-resistant); format: cell-based, Mycobacterium tuberculosis
[2] = test system: Mtb clinical strain TN587 (isoniazide-resistant); format: cell-based, Mycobacterium tuberculosis

Row | SMILES | MIC, Mtb strain NHN382 [1] | MIC, Mtb strain TN587 [2]
1 | NNC(=O)c1ccncc1 [INH, isoniazid, reference compound] | 0.25 µg/mL (≈ 1.82 µM) | 0.25 µg/mL (≈ 1.82 µM)
2 | CCCCOC(=O)Nc1cc2nc(C3CCCCC3)[nH]c2cc1N(C)C [Compound 5f, 5-Butyloxycarbonylamino-2-cyclohexyl-6-N,N-dimethylamino-1H-benzo[d]imidazole] | – | 0.13 µg/mL (≈ 0.363 µM)
